Assays:
Adenosine receptor A1 = biological target: T1, Adenosine receptor A1 (Homo sapiens, UniProt P30542)
T1 sequence (P30542 whole entry): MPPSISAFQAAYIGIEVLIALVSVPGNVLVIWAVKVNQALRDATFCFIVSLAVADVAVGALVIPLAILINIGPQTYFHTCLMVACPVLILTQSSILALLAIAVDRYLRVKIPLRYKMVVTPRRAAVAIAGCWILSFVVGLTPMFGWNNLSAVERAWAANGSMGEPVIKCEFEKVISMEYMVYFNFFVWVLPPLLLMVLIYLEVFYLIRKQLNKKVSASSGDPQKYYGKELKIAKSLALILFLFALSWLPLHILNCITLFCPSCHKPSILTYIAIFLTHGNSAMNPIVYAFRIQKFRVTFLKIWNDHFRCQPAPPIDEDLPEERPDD

Adenosine receptor A2a = Adenosine receptor A2a (Homo sapiens, UniProt P29274)
[1] = biological target: T2, Alpha-2C adrenergic receptor (Homo sapiens, UniProt P18825); format: functional
T2 sequence (P18825 whole entry): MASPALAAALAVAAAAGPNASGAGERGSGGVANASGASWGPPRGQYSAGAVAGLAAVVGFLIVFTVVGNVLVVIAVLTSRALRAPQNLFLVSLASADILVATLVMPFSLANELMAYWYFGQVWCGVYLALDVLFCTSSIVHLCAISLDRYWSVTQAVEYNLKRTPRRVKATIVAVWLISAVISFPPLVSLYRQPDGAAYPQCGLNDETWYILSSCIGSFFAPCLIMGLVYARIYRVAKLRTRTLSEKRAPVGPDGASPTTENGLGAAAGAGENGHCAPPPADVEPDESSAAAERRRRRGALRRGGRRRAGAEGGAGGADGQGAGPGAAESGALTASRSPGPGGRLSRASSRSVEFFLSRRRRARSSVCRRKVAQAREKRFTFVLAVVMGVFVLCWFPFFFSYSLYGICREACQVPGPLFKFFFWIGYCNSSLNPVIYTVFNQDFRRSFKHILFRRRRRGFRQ

[2] = biological target: T3, Type-1 angiotensin II receptor (Homo sapiens, UniProt P30556)
T3 sequence (P30556 whole entry): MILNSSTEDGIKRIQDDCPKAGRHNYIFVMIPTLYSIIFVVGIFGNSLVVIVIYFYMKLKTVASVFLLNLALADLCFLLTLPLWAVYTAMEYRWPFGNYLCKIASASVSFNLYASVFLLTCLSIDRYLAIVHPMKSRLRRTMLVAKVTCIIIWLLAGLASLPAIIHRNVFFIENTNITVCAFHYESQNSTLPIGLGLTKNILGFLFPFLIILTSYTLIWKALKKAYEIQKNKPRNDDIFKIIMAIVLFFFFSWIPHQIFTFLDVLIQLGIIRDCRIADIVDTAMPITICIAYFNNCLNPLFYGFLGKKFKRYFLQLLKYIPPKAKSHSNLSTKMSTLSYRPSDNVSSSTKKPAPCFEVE

[3] = biological target: T4, Cholecystokinin receptor type A (Homo sapiens, UniProt P32238)
T4 sequence (P32238 whole entry): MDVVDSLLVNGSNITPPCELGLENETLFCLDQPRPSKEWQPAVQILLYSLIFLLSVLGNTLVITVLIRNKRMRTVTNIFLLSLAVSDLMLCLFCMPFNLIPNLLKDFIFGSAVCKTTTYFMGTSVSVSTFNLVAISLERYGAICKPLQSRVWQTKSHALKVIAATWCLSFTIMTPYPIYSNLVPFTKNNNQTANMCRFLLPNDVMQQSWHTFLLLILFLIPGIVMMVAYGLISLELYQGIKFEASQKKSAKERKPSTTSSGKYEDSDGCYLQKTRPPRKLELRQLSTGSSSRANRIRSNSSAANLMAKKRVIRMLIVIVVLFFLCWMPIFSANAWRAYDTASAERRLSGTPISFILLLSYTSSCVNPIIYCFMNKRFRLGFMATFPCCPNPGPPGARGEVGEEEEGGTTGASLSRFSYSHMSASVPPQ

[4] = biological target: T5, Muscarinic acetylcholine receptor M2 (Homo sapiens, UniProt P08172); format: functional, cell-based
T5 sequence (P08172 whole entry): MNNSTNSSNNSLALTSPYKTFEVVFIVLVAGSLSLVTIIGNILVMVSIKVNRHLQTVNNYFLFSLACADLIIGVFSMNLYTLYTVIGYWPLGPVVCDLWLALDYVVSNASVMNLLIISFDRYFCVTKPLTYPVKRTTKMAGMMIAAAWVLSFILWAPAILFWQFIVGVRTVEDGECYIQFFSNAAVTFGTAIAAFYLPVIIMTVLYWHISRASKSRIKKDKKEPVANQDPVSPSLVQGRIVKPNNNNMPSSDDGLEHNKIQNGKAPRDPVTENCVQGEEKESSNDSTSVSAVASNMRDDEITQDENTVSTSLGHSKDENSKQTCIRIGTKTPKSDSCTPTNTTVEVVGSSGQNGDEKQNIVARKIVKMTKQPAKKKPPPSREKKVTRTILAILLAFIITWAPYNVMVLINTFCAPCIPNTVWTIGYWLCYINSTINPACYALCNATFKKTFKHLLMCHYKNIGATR

[5] = biological target: T5, Muscarinic acetylcholine receptor M2; format: functional, cell-based; remark: listed apart in the source
[6] = biological target: Growth hormone secretagogue receptor type 1 (Homo sapiens, UniProt Q92847)
Melanocortin receptor 3 = Melanocortin receptor 3 (Homo sapiens, UniProt P41968)
[7] = biological target: Delta-type opioid receptor (Homo sapiens, UniProt P41143)
[8] = biological target: T6, Equilibrative nucleoside transporter 1 (Homo sapiens, UniProt Q99808)
T6 sequence (Q99808 whole entry): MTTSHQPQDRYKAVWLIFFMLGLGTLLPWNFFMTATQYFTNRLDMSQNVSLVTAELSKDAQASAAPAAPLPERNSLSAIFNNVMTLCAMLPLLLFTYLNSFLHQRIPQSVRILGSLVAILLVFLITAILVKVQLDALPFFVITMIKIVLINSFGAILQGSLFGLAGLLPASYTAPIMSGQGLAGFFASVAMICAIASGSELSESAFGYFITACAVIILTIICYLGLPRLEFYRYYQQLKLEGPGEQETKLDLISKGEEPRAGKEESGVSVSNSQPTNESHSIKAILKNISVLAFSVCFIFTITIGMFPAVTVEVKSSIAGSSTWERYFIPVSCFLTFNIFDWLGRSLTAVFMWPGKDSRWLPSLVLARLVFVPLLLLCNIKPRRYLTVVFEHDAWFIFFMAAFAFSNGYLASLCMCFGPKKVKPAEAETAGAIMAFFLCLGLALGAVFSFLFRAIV

[9] = biological target: cGMP-inhibited 3',5'-cyclic phosphodiesterase 3A (Homo sapiens, UniProt Q14432); format: functional
Also: assay procedure not described here.

Sequence of Melanocortin receptor 3 (P41968 whole entry): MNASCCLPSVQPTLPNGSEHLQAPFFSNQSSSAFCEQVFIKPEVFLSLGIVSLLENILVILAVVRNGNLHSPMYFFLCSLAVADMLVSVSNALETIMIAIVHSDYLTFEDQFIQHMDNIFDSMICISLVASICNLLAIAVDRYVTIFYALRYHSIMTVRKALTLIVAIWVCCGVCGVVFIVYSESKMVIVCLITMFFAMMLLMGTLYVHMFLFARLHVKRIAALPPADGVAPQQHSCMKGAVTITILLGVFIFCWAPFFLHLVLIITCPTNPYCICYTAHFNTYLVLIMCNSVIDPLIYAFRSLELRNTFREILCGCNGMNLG
Sequence of Adenosine receptor A2a (P29274 whole entry): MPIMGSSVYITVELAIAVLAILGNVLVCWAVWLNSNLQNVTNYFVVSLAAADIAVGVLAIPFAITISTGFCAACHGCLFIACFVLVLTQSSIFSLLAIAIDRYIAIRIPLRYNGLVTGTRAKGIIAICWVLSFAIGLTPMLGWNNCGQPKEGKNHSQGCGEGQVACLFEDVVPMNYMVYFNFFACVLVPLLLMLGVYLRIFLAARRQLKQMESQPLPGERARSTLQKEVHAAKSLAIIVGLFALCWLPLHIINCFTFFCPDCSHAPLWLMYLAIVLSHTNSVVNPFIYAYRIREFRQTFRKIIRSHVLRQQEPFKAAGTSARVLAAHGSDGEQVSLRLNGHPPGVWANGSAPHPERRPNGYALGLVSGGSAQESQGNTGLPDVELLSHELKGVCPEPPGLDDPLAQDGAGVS
Sequence of Growth hormone secretagogue receptor type 1 (Q92847 whole entry): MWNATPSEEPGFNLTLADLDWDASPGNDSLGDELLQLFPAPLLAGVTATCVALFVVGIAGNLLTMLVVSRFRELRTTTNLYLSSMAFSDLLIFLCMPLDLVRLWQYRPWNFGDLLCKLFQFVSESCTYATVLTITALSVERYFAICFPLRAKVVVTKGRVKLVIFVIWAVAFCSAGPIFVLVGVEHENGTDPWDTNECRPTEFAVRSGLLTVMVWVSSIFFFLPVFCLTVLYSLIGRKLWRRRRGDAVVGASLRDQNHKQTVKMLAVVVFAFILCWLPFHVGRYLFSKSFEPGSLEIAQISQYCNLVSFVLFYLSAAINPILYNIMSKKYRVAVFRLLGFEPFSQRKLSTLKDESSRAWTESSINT
Sequence of cGMP-inhibited 3',5'-cyclic phosphodiesterase 3A (Q14432 whole entry): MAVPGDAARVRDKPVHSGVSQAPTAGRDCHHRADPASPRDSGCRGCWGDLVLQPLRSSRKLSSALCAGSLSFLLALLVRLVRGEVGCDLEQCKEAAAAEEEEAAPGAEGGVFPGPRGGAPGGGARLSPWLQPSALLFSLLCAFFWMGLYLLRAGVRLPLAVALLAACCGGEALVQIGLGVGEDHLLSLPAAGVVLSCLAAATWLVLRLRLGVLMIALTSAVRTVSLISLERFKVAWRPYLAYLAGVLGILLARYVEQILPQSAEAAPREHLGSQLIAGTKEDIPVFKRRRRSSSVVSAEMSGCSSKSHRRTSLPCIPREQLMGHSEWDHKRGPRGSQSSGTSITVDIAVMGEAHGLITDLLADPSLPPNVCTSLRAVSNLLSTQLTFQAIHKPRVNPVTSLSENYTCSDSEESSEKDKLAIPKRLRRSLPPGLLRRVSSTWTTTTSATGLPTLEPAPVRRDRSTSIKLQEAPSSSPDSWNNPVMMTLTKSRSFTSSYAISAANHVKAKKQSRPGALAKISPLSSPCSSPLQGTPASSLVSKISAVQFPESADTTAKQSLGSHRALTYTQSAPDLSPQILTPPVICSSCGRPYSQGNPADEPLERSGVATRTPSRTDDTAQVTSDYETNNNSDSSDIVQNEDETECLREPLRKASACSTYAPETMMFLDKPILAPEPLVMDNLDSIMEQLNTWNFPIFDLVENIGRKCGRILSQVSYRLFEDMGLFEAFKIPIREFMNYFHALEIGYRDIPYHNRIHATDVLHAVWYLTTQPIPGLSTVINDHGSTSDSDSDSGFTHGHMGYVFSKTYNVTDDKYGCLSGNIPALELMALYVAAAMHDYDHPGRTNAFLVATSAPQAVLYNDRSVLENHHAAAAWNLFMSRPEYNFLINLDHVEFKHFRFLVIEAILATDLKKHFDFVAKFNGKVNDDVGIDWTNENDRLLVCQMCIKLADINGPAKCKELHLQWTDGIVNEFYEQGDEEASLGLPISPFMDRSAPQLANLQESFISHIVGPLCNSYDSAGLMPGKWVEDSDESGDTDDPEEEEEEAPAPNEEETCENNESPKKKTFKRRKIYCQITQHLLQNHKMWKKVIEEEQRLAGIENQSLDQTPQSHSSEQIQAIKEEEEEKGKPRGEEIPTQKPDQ
Sequence of Delta-type opioid receptor (P41143 whole entry): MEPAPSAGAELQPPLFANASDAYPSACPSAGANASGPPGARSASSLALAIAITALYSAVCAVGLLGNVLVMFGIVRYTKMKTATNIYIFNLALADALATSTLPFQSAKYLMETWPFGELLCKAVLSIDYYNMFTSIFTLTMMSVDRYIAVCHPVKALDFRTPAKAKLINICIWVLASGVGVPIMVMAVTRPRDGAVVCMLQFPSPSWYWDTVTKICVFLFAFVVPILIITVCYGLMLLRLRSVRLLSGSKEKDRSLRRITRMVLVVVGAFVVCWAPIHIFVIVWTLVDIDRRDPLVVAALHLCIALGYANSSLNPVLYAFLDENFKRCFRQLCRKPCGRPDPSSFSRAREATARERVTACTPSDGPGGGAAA

SMILES	AC50 (Adenosine receptor A1) [µM]	AC50 (Adenosine receptor A2a) [µM]	AC50 [1] [µM]	AC50 [2] [µM]	AC50 [3] [µM]	AC50 [4] [µM]	AC50 [5] [µM]	AC50 [6] [µM]	AC50 (Melanocortin receptor 3) [µM]	AC50 [7] [µM]	AC50 [8] [µM]	AC50 [9] [µM]
CO[C@H]1C[C@@H]2CC[C@@H](C)[C@@](O)(O2)C(=O)C(=O)N2CCCC[C@H]2C(=O)O[C@H]([C@H](C)C[C@@H]2CC[C@@H](O)[C@H](OC)C2)CC(=O)[C@H](C)/C=C(\C)[C@@H](O)[C@@H](OC)C(=O)[C@H](C)C[C@H](C)/C=C/C=C/C=C/1C [SIROLIMUS]	> 30	> 30	> 10	> 30	> 30	> 10	> 10	> 30	> 30	> 30	6.8	> 30
Cc1cn([C@H]2C=C[C@@H](CO)O2)c(=O)[nH]c1=O [STAVUDINE]	> 30	> 30	> 10	> 30	> 30	> 10	> 10	> 30	> 30	> 10	> 30	> 30
Cn1nnc2c(C(N)=O)ncn2c1=O [TEMOZOLOMIDE]	> 30	> 30	> 30	> 30	> 30	> 30	> 30	> 30	> 30	> 30	> 30	> 30
Clc1ccc2nsnc2c1NC1=NCCN1 [TIZANIDINE]	> 30	> 30	1.31	> 30	> 30	> 30	> 30	> 30	> 30	> 30	> 30	> 30
O=C(O[C@H]1C[C@H]2CC[C@@H](C1)[N+]21CCCC1)C(O)(c1ccccc1)c1ccccc1 [TROSPIUM]	> 30	> 30	> 30	> 30	> 30	> 30	0.0061	> 30	> 30	> 30	> 30	> 30
N[C@@H]1[C@H]2CN(c3nc4c(cc3F)c(=O)c(C(=O)O)cn4-c3ccc(F)cc3F)C[C@@H]12 [TROVAFLOXACIN]	> 30	> 30	> 30	> 30	> 30	> 30	> 30	> 30	> 30	> 30	> 30	> 30
Nc1ccn([C@H]2CC[C@@H](CO)O2)c(=O)n1 [ZALCITABINE]	> 10	> 10	> 10	> 10	> 10	> 10	> 10	> 10	> 10	> 30	> 10	> 30
Cc1cn([C@H]2C[C@H](N=[N+]=[N-])[C@@H](CO)O2)c(=O)[nH]c1=O [ZIDOVUDINE]	> 30	> 30	> 10	> 30	> 30	> 10	> 10	> 30	> 30	> 30	> 30	> 30
NS(=O)(=O)Cc1noc2ccccc12 [ZONISAMIDE]	> 10	> 10	> 10	> 10	> 10	> 10	> 10	> 10	> 10	> 30	> 10	> 30

Source: ChEMBL document CHEMBL5291721, “A preclinical secondary pharmacology resource illuminates target-adverse drug reaction associations of marketed drugs” (Nat Commun, 2023)
